How the values were obtained:
[1] = Stability in solution (visual observation of precipitation with auxiliary agent); format: physicochemical; conditions: precipitation observed visually after 24 hours at room temperature
Protocol: Specifically, unenclosed inotodiol or the inotodiol/CD inclusion complex was mixed with a prepared auxiliary agent. The auxiliary agent was prepared at a concentration of 100 to 15,000 ppm based on the weight of inotodiol, and then treated in a sonic bath at 50 °C for 30 minutes. Afterwards, the stability was determined by visually observing whether precipitation occurred after leaving the mixture at room temperature for 24 hours.

[2] = test system: mouse-derived macrophage cell line (Raw264.7); assay: Anti-inflammatory effect against LPS in macrophage cell line, cytokine mRNA by RT-PCR; format: cell-based; conditions: treated at 5 ug/ml; LPS 0.1 µg/ml, 4 hours
Protocol: Specifically, Raw264.7 was seeded into a […] at a density of 0.8 X 10^6 cells/well and cultured overnight. Then, the cells were pre-treated with inotodiol and the inotodiol/CD inclusion complex each at different concentrations for 2 hours. The cells were treated with lipopolysaccharide (LPS) at a concentration of 0.1 µg/ml and cultured for 4 hours to induce inflammation, after which RNA was extracted. Then, the mRNA expression of IL-6, IL-1β, and TNF-α was confirmed by a reverse transcription polymerase chain reaction (RT-PCR) method, and the results are shown in FIG. 6.

Compound: CC(C)=CC[C@@H](O)[C@@H](C)[C@H]1CC[C@@]2(C)C3=C(CC[C@]12C)[C@@]1(C)CC[C@H](O)C(C)(C)[C@@H]1CC3 [inotodiol, (3S,5R,10S,13R,14R,17R)-17-[(2S,3R)-3-hydroxy-6-methylhept-5-en-2-yl]-4,4,10,13,14-pentamethyl-2,3,5,6,7,11,12,15,16,17-decahydro-1H-cyclopenta[a]phenanthren-3-ol]
- ppm of inotodiol in solution ([1]; Kolliphor (5 %)): 500 < ppm
- ppm of inotodiol in solution ([1]; Tween 80 (1 %)): 100 < ppm
- mRNA expression level of IL-6 [2]: significantly reduced
- mRNA expression level of TNF-α [2]: significantly reduced

Reference: patent publication EP4706685A1, “PHARMACEUTICAL FORMULATION COMPRISING LANOSTEROL, DERIVATIVE THEREOF, AND CYCLODEXTRIN” (CARBOEXPERT Inc., priority 2023, dated 2024)
